{"source": "ChEMBL document CHEMBL1136177", "about": "“Neuroprotective or neurotoxic activity of 1-methyl-1,2,3,4-tetrahydroisoquinoline and related compounds” (Bioorg Med Chem Lett, 2003)"}
{"experiment": "Neurotoxicity against human neuroblastoma SH-SY5Y cells using MTT dye conversion assay", "units": {"CC50": "mM"}}
{"compound": "CC1NCCc2c(O)cccc21", "note": "(stereo not drawn)", "CC50": 3.38}
{"compound": "COc1cc2c(cc1OC)C(C)NCC2", "note": "(stereo not drawn)", "CC50": 2.73}
{"compound": "CC1NCCc2ccc(O)cc21", "note": "(stereo not drawn)", "CC50": 4.15}
{"compound": "CC1NCCc2cc(O)c(O)cc21", "note": "(stereo not drawn)", "CC50": 0.034}
{"compound": "COc1ccc2c(c1)CCNC2C", "note": "(stereo not drawn)", "CC50": 2.79}
{"compound": "CC1NCCc2cc(O)ccc21", "note": "(stereo not drawn)", "CC50": 3.63}
{"compound": "COc1ccc2c(c1)C(C)NCC2", "note": "(stereo not drawn)", "CC50": 1.39}
{"compound": "COc1cccc2c1CCNC2C", "note": "(stereo not drawn)", "CC50": 2.45}
